According to US8481738B2, “Gonadotropin-releasing hormone receptor antagonists and methods relating thereto” (Neurocrine Biosciences, Inc., priority 2007, dated 2013):

Each compound was assayed against T1, human GnRH receptor (Homo sapiens, UniProt P30968) (assay: Peptide competition radioligand binding displacement assay, human GnRH receptor membranes). Conditions: one or more of the peptide competition human receptor binding assays.
T1 construct: expressed in transfected cells; host or cells: RBL cells, stably transfected (in general)
T1 sequence (P30968 1-328): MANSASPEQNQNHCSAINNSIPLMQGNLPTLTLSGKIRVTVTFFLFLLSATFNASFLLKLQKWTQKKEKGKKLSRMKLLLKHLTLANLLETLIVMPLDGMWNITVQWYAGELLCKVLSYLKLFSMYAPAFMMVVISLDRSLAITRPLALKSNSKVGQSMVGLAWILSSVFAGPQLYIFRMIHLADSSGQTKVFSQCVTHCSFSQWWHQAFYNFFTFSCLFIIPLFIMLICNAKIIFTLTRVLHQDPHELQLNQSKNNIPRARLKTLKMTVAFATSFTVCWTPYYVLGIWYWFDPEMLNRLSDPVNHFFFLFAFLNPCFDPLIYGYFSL
Procedure, shortened: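 Membranes for radioligand binding were prepared from RBL cells stably expressing human GnRH receptor, which were lysed by nitrogen cavitation at 900 psi, 4° C. Membranes from HEK293 cells stably transfected with human receptor were held in 10 mM HEPES pH 7.5, 150 mM NaCl, 0.1% BSA. Transiently transfected COS-7 cells were used for other species.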

Ki, ≤ 100 nM:
COC(=O)COc1ccccc1N(C)C(=O)c1ccc(Cl)c(-c2cnc(Cl)cc2C)c1 [3-1, (2-{[4-chloro-3-(6-chloro-4-methyl-pyridin-3-yl)-benzoyl]-methyl-amino}-phenoxy)-acetic acid methyl ester]
COc1cc(Cl)c(-c2cnc(C(F)(F)F)cc2C#N)cc1C(=O)N(C)c1ccccc1OC [38-1, 4-Chloro-5-(4-cyano-6-trifluoromethyl-pyridin-3-yl)-2-methoxy-N-(2-methoxy-phenyl)-N-methyl-benzamide]
COc1ccccc1N(C)C(=O)c1cc(-c2cnc(C(F)(F)F)cc2C#N)c(Cl)cc1OCCN(C)S(C)(=O)=O [48-2, 4-Chloro-5-(4-cyano-6-trifluoromethyl-pyridin-3-yl)-2-[2-(methanesulfonyl-methyl-amino)-ethoxy]-N-(2-methoxy-phenyl)-N-methyl-benzamide]
COc1ccccc1N(C)C(=O)c1ccc(Cl)c(-c2ccc(Cl)cc2C#N)c1 [2-55]
COc1ccccc1N(C)C(=O)c1cc(-c2cnc(C(F)(F)F)cc2C#N)c(Cl)cc1OCCCc1ccccn1 [42-6]
Cc1cc(C(F)(F)F)ncc1-c1cc(C(=O)N(C)c2c(C)cccc2OCCC(=O)O)ccc1Cl [11-5]
COc1cccc(C)c1N(C)C(=O)c1ccc(Cl)c(-c2cnc(C)cc2Cl)c1 [2-27]
CN(C(=O)c1ccc(Cl)c(-c2cnc(C(F)(F)F)cc2C#N)c1)c1ccccc1OCCC(=O)N1CCNCC1 [53-2, 4-Chloro-3-(4-cyano-6-trifluoromethyl-pyridin-3-yl)-N-methyl-N-[2-(3-oxo-3-piperazin-1-yl-propoxy)-phenyl]-benzamide]
COC(=O)CCCOc1c(F)cccc1N(C)C(=O)c1ccc(Cl)c(-c2cnc(C(F)(F)F)cc2C#N)c1 [3-12]
COc1cc(Cl)c(-c2cnc(C(F)(F)F)cc2C#N)cc1C(=O)N(C)Cc1ccccc1 [39-15]
Cc1ccccc1N(C)C(=O)c1ccc(Cl)c(-c2ccc(Cl)nc2)c1 [2-15]
CCOC(=O)CCOc1ccccc1N(C)C(=O)c1ccc(Cl)c(-c2cnc(C(F)(F)F)cc2C#N)c1 [16-2, 3-(2-{[4-chloro-3-(4-cyano-6-trifluoromethyl-pyridin-3-yl)-benzoyl]-methyl-amino}-phenoxy)-propionic acid ethyl ester]
CCN(C(=O)c1ccc(Cl)c(-c2ncc(Cl)cc2Cl)c1)c1ccccc1OC [17-2]
COC(=O)COc1ccccc1N(C)C(=O)c1ccc(Cl)c(-c2cnc(C)cc2Cl)c1 [3-4]
COc1cccc(C)c1N(C)C(=O)c1cc(-c2cnc(C(F)(F)F)cc2C#N)c(Cl)cc1OCCCC(=O)O [22-1, 4-{5-Chloro-4-(4-cyano-6-trifluoromethyl-pyridin-3-yl)-2-[(2-methoxy-6-methyl-phenyl)-methyl-carbamoyl]-phenoxy}-butyric acid]
COC(=O)CCCOc1ccccc1N(C)C(=O)c1ccc(Cl)c(-c2cnc(Cl)cc2C)c1 [3-2]
CN(C(=O)c1ccc(Cl)c(-c2ncc(C(F)(F)F)cc2Cl)c1)c1ccccc1F [2-76]
COC(=O)c1ccccc1N(C)C(=O)c1ccc(Cl)c(-c2ncc(Cl)cc2Cl)c1 [19-6]
Cc1cccc(N(C)C(=O)c2ccc(Cl)c(-c3ncc(Cl)cc3Cl)c2)c1C [19-10]
COc1ccccc1N(C)C(=O)c1cc(-c2cnc(C(F)(F)F)cc2C#N)c(Cl)cc1OCCc1cnccn1 [46-3]
COc1ccccc1N(C)C(=O)c1ccc(Cl)c(-c2nc3ccccc3cc2C)c1 [2-79]
CN(C(=O)c1ccc(Cl)c(-c2nc3ccccc3cc2C#N)c1)c1ccccc1CCCC(=O)O [15-1, 4-(2-{[4-Chloro-3-(3-cyano-quinolin-2-yl)-benzoyl]-methyl-amino}-phenyl)-butyric acid]
COc1ccc(OC)c(N(C)C(=O)c2cc(-c3cnc(C(F)(F)F)cc3C#N)c(Cl)cc2OCCCC(=O)O)c1 [34-13]
COc1cccc(C)c1N(C)C(=O)c1cc(-c2cnc(C(F)(F)F)cc2C#N)c(Cl)cc1OCCO [21-7]
COc1cc(Cl)c(-c2cnc(C(F)(F)F)cc2C#N)cc1C(=O)N(C)c1ccccc1 [39-7]
CN(C(=O)c1cc(-c2cnc(C(F)(F)F)cc2C#N)c(Cl)cc1OCCCC(=O)O)c1ccccc1 [34-8]
CN(C(=O)c1ccc(Cl)c(-c2ncc(Cl)cc2Cl)c1)c1cccc(F)c1 [19-3]
